# Laboratory results from patent US9073902B2 (BioEnergenix, LLC, priority 2011, dated 2015).
# Target: T1, hPASK (Homo sapiens, UniProt Q96RG2)
# T1 construct: IC50 Kinase Domain; purchased Invitrogen
# Test: PAS Kinase FRET Assay (Biochemical Assay for hPASK Activity)
# Settings: TR-FRET (665 nm/615 nm), 2 hours at 25° C.; read-out: IC50 Kinase Domain
# Description: Biochemical Assay for hPASK Activity
# The aim of the FRET assay is to determine the inhibition potential of test compounds on targeted kinase. This assay platform provides a homogenous screening method for measuring kinase activity by quantitating the amount of phospho-substrate in solution following a kinase reaction.
# In the presence of kinase and ATP, the Ulight-peptide is phosphorylated and captured by an anti-phospho-substrate antibody, which brings the Eu chelate donor and Ulight acceptor dyes into close proximity. Upon excitation at 340 nm, the Eu chelate transfers its energy to the Ulight dye, resulting in a fluorescent light emission at 665 nm.
# Titration of kinase at 1 mM ATP was achieved via the following protocol. After making serial three-fold dilutions of PASK (Invitrogen) in reaction buffer across the plate; 5 μl of kinase dilution and 5 μl substrate/ATP mix were added to the wells of the white Optiplate-384 (PerkinElmer). The contents of the plate were and incubated at RT for 1 h. The reaction was stopped by adding 5 μl of stop solution to each test well followed by mixing and incubation at RT for 10 minutes. 5 μl of detection mix (detection antibody diluted in detection buffer) was added; the contents of the plate were mixed and then incubated in the dark for 1 hour at RT. The signal was recorded at TR-FRET mode (665 nm/615 nm). The results were graphed to calculate the EC50.
# Titration of ATP at the EC50 concentration of kinase to determine ATP Km, app. was performed using the following method. After making serial dilutions of ATP (Invitrogen), 5 μl of ATP dilution and 5 μl substrate/kinase mix were added to the wells of the white Optiplate-384 (PerkinElmer). The contents of the plate were and incubated at RT for 1 h. The reaction was stopped by adding 5 μl of stop solution to each test well followed by mixing and incubation at RT for 10 minutes. 5 μl of detection mix (detection antibody diluted in detection buffer) was added; the contents of the plate were mixed and then incubated in the dark for 1 hour at RT. The signal was recorded at TR-FRET mode (665 nm/615 nm). The results were graphed to calculate the EC50 as the ATP Km,app.
# Compound screening was done via the following method. 10 mM stock solution of test compound in DMSO was prepared by dissolving test compound in DMSO at RT for 1 hour, and then sonicating at 100% output for 8 minutes. If compound is not soluble under this condition, it was diluted to 3 mM. Kinase reaction buffer was prepared containing 10 mM MgCl2, 50 mM HEPES, 1 mM EGTA, 0.01% TWEEN-20, 2 mM DTT. Serial dilutions of the test compounds were prepared at 4× final assay concentrations using Freedom EVO200® dispensing system as follows: 12×10^−5 M, 4×10^−5M, 1.33×10^−5M, 4.44×10^−6M, 1.48×10^−6M, 4.92×10^−7M, 1.65×10^−7M, 5.48×10^−7 M, 1.82×10^−8 M, 6.09×10^−9, 2.03×10^−9 M. Test compounds (2.5 μl at 4× the final assay concentration) was added to wells using Freedom EVO200® dispensing system. As a positive control, 2.5 μl of positive compound was added to assay wells, and 2.5 μl of DMSO to assay wells as vehicle control. Kinase solution was prepared in reaction buffer at 2× final assay concentration. Kinase solution (5 μl) was added to each well of the assay plate. The substrate and ATP solution was prepared in kinase reaction buffer at 4× final assay concentration. The kinase reaction was started by adding 2.5 μl of substrate+ATP mix solution to each well of the assay plate. The plate is mixed on a plate shaker; then covered and allowed to react for 2 hours in the dark at 25° C. without shaking. The reaction was stopped by adding 5 μl of stop solution to each test well followed by mixing and incubation at RT for 10 minutes in the dark. 5 μl of detection mix (detection antibody diluted in detection buffer) was added; the contents of the plate were mixed and then incubated in the dark for 1 hour at RT. The signal was recorded at TR-FRET mode (665 nm/615 nm).
# T1 sequence (Q96RG2 999-1251 limits assumed): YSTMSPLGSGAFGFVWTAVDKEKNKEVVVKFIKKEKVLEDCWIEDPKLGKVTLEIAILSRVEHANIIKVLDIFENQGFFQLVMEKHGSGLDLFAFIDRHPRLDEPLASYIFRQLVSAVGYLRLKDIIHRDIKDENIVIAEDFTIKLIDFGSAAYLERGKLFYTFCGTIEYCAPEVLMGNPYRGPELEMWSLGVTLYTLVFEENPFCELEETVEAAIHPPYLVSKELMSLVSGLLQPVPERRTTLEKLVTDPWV
row,Compound,IC50
1,"COc1ccc2c(c1)N(c1nc3cc(C(=O)O)ccc3nc1-c1ccc(F)cc1)CCC2 [Example 22, 2-(4-Fluorophenyl)-3-(7-methoxy-1,2,3,4-tetrahydroquinolin-1-yl)quinoxaline-6-carboxylic acid]",≤ 10 µM
2,"O=C(O)c1ccc2nc(-c3cc4cc(F)ccc4o3)c(N3CCCc4ccccc43)nc2c1 [Example 3, 3-(1,2,3,4-Tetrahydroquinolin-1(2H)-yl)-2-(5-fluorobenzofuran-2-yl)quinoxaline-6-carboxylic acid]",≤ 10 µM
3,"O=C(O)c1ccc2nc(-c3ccc(F)cc3)c(N3CCCc4cc(Cl)ccc43)nc2c1 [Example 18, 3-(6-Chloro-1,2,3,4-tetrahydroquinolin-1-yl)-2-(4-fluorophenyl)quinoxaline-6-carboxylic acid]",≤ 10 µM
4,"COc1ccc2c(c1)CCCN2c1nc2cc(C(=O)O)ccc2nc1-c1cc2cc(F)ccc2o1 [Example 7, 2-(5-Fluoro-1-benzofuran-2-yl)-3-(6-methoxy-1,2,3,4-tetrahydroquinolin-1-yl)quinoxaline-6-carboxylic acid]",≤ 10 µM
5,"O=C(O)c1ccc2nc(-c3ccc4c(c3)OCCO4)c(N3CCCc4ccccc43)nc2c1 [Example 4, 2-(2,3-Dihydro-1,4-benzodioxin-6-yl)-3-(1,2,3,4-tetrahydroquinolin-1-yl)quinoxaline-6-carboxylic acid]",≤ 10 µM
6,O=C(O)c1ccc2nc(-c3ccc(F)cc3)c(N3CCCc4c(F)cccc43)nc2c1 [Example 19],≤ 10 µM
7,"N#Cc1ccc2c(c1)CCCN2c1nc2cc(C(=O)O)ccc2nc1-c1ccc(F)cc1 [Example 12, 3-(6-Cyano-1,2,3,4-tetrahydroquinolin-1-yl)-2-(4-fluorophenyl)quinoxaline-6-carboxylic acid]",≤ 10 µM
8,"Cc1cc2cc(-c3nc4ccc(C(=O)O)cc4nc3N3CCCc4cc(F)ccc43)ccc2[nH]1 [Example 20, 3-(6-Fluoro-1,2,3,4-tetrahydroquinolin-1-yl)-2-(2-methyl-1H-indol-5-yl)quinoxaline-6-carboxylic acid]",≤ 10 µM
9,"CN(C)c1ccc2c(c1)CCCN2c1nc2cc(C(=O)O)ccc2nc1-c1ccc(F)cc1 [Example 17, 3-[6-(Dimethylamino)-1,2,3,4-tetrahydroquinolin-1-yl]-2-(4-fluorophenyl)quinoxaline-6-carboxylic acid]",≤ 10 µM
10,"O=C(O)c1ccc2[nH]c(=O)c(N3CCCc4ccccc43)nc2c1 [Example 10, 2-Oxo-3-(1,2,3,4-tetrahydroquinolin-1-yl)-1,2-dihydroquinoxaline-6-carboxylic acid]",> 10 µM
11,"COc1ccc2c(c1)CCCN2c1nc2cc(C(=O)O)ccc2nc1-c1cc2cc(Cl)ccc2o1 [Example 9, 2-(5-Chloro-1-benzofuran-2-yl)-3-(6-methoxy-1,2,3,4-tetrahydroquinolin-1-yl)quinoxaline-6-carboxylic acid]",≤ 10 µM
12,"O=C(O)c1ccc2nc(-c3ccc(F)cc3)c(N3CCCc4cc5c(cc43)OCO5)nc2c1 [Example 24, 3-[2H,5H,6H,7H,8H-[1,3]Dioxolo[4,5-g]quinolin-5-yl]-2-(4-fluorophenyl)quinoxaline-6-carboxylic acid]",≤ 10 µM
13,"O=C(O)c1ccc2nc(-c3cc4ccccc4o3)c(N3CCCc4ccccc43)nc2c1 [Example 2, 2-(Benzofuran-2-yl)-3-(1,2,3,4-tetrahydroquinolin-1(2H)-yl)quinoxaline-6-carboxylic acid]",≤ 10 µM

# Second part, the compound after the results:
row,IC50,Compound
1,≤ 10 µM,"COc1ccc2c(c1)CCCN2c1nc2cc(C(=O)O)ccc2nc1-c1ccc(F)cc1 [Example 5, 2-(4-Fluorophenyl)-3-(6-methoxy-1,2,3,4-tetrahydroquinolin-1-yl)quinoxaline-6-carboxylic acid]"
2,≤ 10 µM,O=C(O)c1ccc2nc(-c3ccc(F)cc3)c(N3CCCc4cc(Br)ccc43)nc2c1 [Example 13]
3,≤ 10 µM,"NC(=O)c1ccc2c(c1)CCCN2c1nc2cc(C(=O)O)ccc2nc1-c1ccc(F)cc1 [Example 14, 3-(6-Carbamoyl-1,2,3,4-tetrahydroquinolin-1-yl)-2-(4-fluorophenyl)quinoxaline-6-carboxylic acid]"
4,≤ 10 µM,"O=C(O)c1ccc2nc(-c3ccc(F)cc3)c(N3CCCc4cc(C(=O)N5CCOCC5)ccc43)nc2c1 [Example 15, 2-(4-Fluorophenyl)-3-[6-[(morpholin-4-yl)carbonyl]-1,2,3,4-tetrahydroquinolin-1-yl]quinoxaline-6-carboxylic acid]"
5,≤ 10 µM,"CN(C)S(=O)(=O)c1ccc2c(c1)CCCN2c1nc2cc(C(=O)O)ccc2nc1-c1ccc(F)cc1 [Example 16, 3-[6-(Dimethylsulfamoyl)-1,2,3,4-tetrahydroquinolin-1-yl]-2-(4-fluorophenyl)quinoxaline-6-carboxylic acid]"
6,≤ 10 µM,"O=C(O)c1ccc2nc(-c3ccc(F)cc3)c(N3CCCc4ccccc43)nc2c1 [Example 1, 3-(1,2,3,4-Tetrahydroquinolin-1(2H)-yl)-2-(4-fluorophenyl)quinoxaline-6-carboxylic acid]"
7,≤ 10 µM,"O=C(O)c1ccc2nc(-c3ccc(F)cc3)c(N3CCCc4cc(F)ccc43)nc2c1 [Example 6, 3-(6-Fluoro-1,2,3,4-tetrahydroquinolin-1-yl)-2-(4-fluorophenyl)quinoxaline-6-carboxylic acid]"
8,≤ 10 µM,"O=C(O)c1ccc2nc(-c3ccc4[nH]ncc4c3)c(N3CCCc4cc(F)ccc43)nc2c1 [Example 21, 3-(6-Fluoro-1,2,3,4-tetrahydroquinolin-1-yl)-2-(1H-indazol-5-yl)quinoxaline-6-carboxylic acid]"
9,≤ 10 µM,"O=C(O)c1ccc2nc(-c3ccc(F)cc3)c(N3CCCc4ccc(F)cc43)nc2c1 [Example 23, 3-(7-Fluoro-1,2,3,4-tetrahydroquinolin-1-yl)-2-(4-fluorophenyl)quinoxaline-6-carboxylic acid]"
10,≤ 10 µM,"O=C(O)c1ccc2nc(-c3cc4cc(Cl)ccc4o3)c(N3CCCc4cc(F)ccc43)nc2c1 [Example 8, 2-(5-Chloro-1-benzofuran-2-yl)-3-(6-fluoro-1,2,3,4-tetrahydroquinolin-1-yl)quinoxaline-6-carboxylic acid]"
